Tests used:
Assay type in all cases: biochemical
[1] = target: T1, Human lung tryptase; assay: Human lung tryptase inhibition, chromogenic GPR-pNA substrate
T1 construct: Human lung tryptase purchased from Cortex Biochem (San Leandro, Calif.) was purified further on a Superdex 200 gel-filtration column
Description: (§1) Protease inhibition was assayed according to published procedures with minor modifications using various proteases and specific chromogenic peptide p-nitroanilide substrates. Assays were performed in Costar ultra-low cluster 96-well microtiter plate (Costar Corning Corp., Cambridge Mass.). Each protease was incubated with various concentrations of the test compound for 15 min. at 37° C. or as otherwise indicated, in specific assay buffer, and the residual activity was then measured by addition of the substrate. p-Nitroaniline produced by the proteolysis was determined by measuring the change in absorbance at 405 nm on a SpectraMAX 340 plate reader (Molecular devices, Sunnyvale, Calif.).
(§2) 1. The inhibition constant, Ki is calculated from individual data points using the equation for a tight-binding inhibitor (See Beith, “Proteinase Inhibitors-Proceedings of 2nd Int. Res. Conference”, Fritz, et al. eds., New York, p.4463-4469 (1974)):
vi/vo=[((Ki′+[I]+[E]o)^2−4[I]o[E]o)^½(Ki′+[I]o−[E]o)]/2[E]o
where Ki′ is apparent inhibition constant; vi and vo are the inhibited and uninhibited rates, respectively; [I]o and [E]o are the total concentrations of inhibitor and enzyme, respectively.
[note: [E]o is determined by active site titration of enzyme]
(§3) The Ki values are obtained by correcting Ki ′ values for the effect of substrate concentration according to: [formula]
(§4) 2. Other inhibition data (Ki>>[E]o), the Ki is calculated from using the equations for a competitive inhibitor: [formula]
IC50 is determined by fitting the individual inhibition data point to Sigmoid or four-parameter curve-fit equations.
Human lung tryptase purchased from Cortex Biochem (San Leandro, Calif.) was purified further on a Superdex 200 gel-filtration column. The active-site concentration of the enzyme was determined by spectrophotometric titration with 4-nitrophenyl 4′-guanidinobenzoate according to Schwartz, et al., J. Immunol., 114, 2304-2311 (1990). Tryptase activity was measured according to the procedures of Schwartz, et al., J. Biol. Chem., 261, 7372-7379 (1986) (See also, Schwartz, L. B., Methods In Enzymology, 244, 88 (1994)) with minor modifications, using Tosyl-Gly-Pro-Arg-p-nitroanilide (“GPR-pNA”, Sigma Chemical Co., St. Louis, Mo., T-1637) as a chromogenic substrate. The reaction was performed in 50 mM Tris-HCl, pH 8.0, containing 150 mM NaCl and 0.02% Triton X-100 at 37° C. in Costar ultra-low cluster 96-well microtiter plates (Costar Corning Corp., Cambridge, Mass.). The amount of pNA produced by tryptase was determined by measuring the change in absorbance at 405 nm on a SpectraMAX 340 plate reader (Molecular devices, Sunnyvale, Calif.). The Km for the substrate was determined by Lineweaver-Burk analysis from initial velocities of substrate hydrolysis. The inhibition assay was carried out in a total volume of 200 μL. Tryptase (30 μL-final concentration 1 nM) was incubated with various concentrations of sample compound (50 μL) to be tested in the above assay buffer for 5 min. The reaction was started by the addition of substrate GPR-pNA (40 μL-final concentration 320 μM), and the residual activity was measured after 15 min. of incubation. The inhibition constant, Ki, was determined by fitting the inhibition data to a two-site competitive binding equation using data analysis program GraphPad PRISM (GraphPad Software, Inc., San Diego, Calif.).
The inhibition constant (Ki) of the test compounds against each proteolytic enzyme was determined according to Zitnik et al., Biochem. Biophys. Res. Commun. 232, 687-697 (1997)).

[2] = target: T2, Human plasma plasmin (Homo sapiens, UniProt P00747); assay: Human plasma plasmin inhibition, Tosyl-Gly-Pro-Lys-pNA substrate; conditions: 100 mM Tris-HCl, pH 7.4, 100 mM NaCl, 0.05% Triton X-100
T2 construct: from tissue; host or cells: human plasma
Description: as §1
(§5) 1. The inhibition constant, Ki is calculated from individual data points using the equation for a tight-binding inhibitor (See Beith, “Proteinase Inhibitors-Proceedings of 2nd Int. Res. Conference”, Fritz, et al. eds., New York, p.4463-4469 (1974)): […]
as §4
Human plasma plasmin activity was determined by using Tosyl-Gly-Pro-Lys-pNA in 100 mM Tris-HCl, pH 7.4, 100 mM NaCl, 0.05% Triton X-100 (See Lottenberg, et al., Meth. Enzymol. 80, 341-361 (1981)).
(§6) The inhibition constant (Ki) of the test compounds against each proteolytic enzyme was determined according to Zitnik et al., Biochem. Biophys. […]

[3] = target: T3, Human Neutrophil Cathepsin G (Homo sapiens, UniProt P08311); assay: Human neutrophil cathepsin G inhibition, N-Suc-Ala-Ala-Pro-Phe-pNA substrate; conditions: 625 mM Tris-HCl, pH 7.5, 2.5 mM MgCl2, 0.125% Brij 35
T3 construct: from tissue; host or cells: human neutrophils
T3 sequence (P08311 21-244): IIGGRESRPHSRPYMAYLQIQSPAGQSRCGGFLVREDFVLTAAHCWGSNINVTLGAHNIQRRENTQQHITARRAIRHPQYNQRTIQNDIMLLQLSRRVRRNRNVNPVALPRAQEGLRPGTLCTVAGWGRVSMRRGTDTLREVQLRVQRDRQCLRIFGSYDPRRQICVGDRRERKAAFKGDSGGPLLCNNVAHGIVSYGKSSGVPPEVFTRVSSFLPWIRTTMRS
Description: as §1, §2, §3
(§7) 2. Other inhibition data (Ki>>[E]o), the Ki is calculated from using the equations for a competitive inhibitor: [formula] […]
Human Neutrophil Cathepsin G activity was determined by using N-Suc-Ala-Ala-Pro-Phe-pNA in 625 mM Tris-HCl, pH 7.5, 2.5 mM MgCl2, 0.125% Brij 35 (See Groutas et al., Arch. Biochem. Biophys. 294, 144-146 (1992)). […]

[4] = target: T4, Bovine Pancreatic Chymotrypsin (Bos taurus, UniProt P00766); assay: Bovine pancreatic chymotrypsin inhibition, N-Suc-Ala-Ala-Pro-Phe-pNA substrate; conditions: 100 mM Tris-HCl, pH 7.8, 10 mM CaCl2
T4 construct: from tissue; host or cells: bovine pancreas
Description: as §1, §5, §7
Bovine Pancreatic Chymotrypsin activity was determined by using N-Suc-Ala-Ala-Pro-Phe-pNA in 100 mM Tris-HCl, pH 7.8, 10 mM CaCl2 (See Delmar, et al., J. Biochem. 85, 157-162 (1979)).
as §6

[5] = target: Human r-tissue kallikrein (Homo sapiens, UniProt P06870); assay: Human r-tissue kallikrein inhibition, DL-Val-Leu-Arg-pNA substrate; conditions: 50 mM Tris-HCl, pH 7.8, 200 mM NaCl, 0.05% BSA
Description: as §1, §5, §7
Human plasma and r-tissue kallikrein activity were determined in 50 mM Tris-HCl1, pH 7.8, 200 mM NaCl, 0.05% BSA by using H-D-Prolyl-Phe-Arg-pNA and DL-Val-Leu-Arg-pNA, respectively (See Lottenberg, et al., Meth. Enzymol. 80, 341-361 (1981)). […]

Sequence of Human r-tissue kallikrein (P06870 25-262): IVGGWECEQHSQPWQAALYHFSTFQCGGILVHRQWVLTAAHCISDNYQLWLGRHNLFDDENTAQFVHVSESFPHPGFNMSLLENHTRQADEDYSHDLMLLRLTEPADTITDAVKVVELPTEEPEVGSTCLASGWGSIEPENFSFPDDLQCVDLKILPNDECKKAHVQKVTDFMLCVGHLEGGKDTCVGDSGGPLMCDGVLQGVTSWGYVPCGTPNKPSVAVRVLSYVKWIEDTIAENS
T2 sequence (P00747 581-810 limits assumed): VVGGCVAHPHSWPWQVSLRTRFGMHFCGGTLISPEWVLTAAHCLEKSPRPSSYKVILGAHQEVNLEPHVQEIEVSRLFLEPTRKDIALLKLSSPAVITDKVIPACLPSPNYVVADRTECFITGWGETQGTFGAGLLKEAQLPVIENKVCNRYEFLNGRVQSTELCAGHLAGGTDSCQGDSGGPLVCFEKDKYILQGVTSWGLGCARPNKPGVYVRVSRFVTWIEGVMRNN
T2 sequence (P00747 97-580 partner limits assumed): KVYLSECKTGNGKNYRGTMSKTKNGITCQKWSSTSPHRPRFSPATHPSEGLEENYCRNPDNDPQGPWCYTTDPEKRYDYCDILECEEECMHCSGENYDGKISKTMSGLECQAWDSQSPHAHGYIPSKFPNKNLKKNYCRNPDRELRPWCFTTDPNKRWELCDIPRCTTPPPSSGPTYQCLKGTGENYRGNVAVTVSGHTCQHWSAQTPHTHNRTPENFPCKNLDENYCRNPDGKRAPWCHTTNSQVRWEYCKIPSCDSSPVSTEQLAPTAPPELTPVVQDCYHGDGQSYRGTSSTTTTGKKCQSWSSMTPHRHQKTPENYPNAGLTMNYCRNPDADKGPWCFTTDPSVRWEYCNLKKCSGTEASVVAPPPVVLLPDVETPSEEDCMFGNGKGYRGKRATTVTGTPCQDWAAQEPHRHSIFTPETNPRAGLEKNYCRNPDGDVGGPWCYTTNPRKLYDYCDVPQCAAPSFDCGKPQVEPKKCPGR

Ki ([1]; the 5th table, unit inferred): 41 nM
Ki ([1]; tryptase 1 nM, GPR-pNA 320 μM, 50 mM Tris-HCl pH 8.0, 37° C.): 41 nM
Ki [2]: 2700 nM
Ki [3]: > 100000 nM
Ki [4]: > 100000 nM
Ki [5]: > 100000 nM
Structure (SMILES): Cc1cc2cc(CNC(=O)Cc3cc4cc(C(=N)N)ccc4s3)ccc2[nH]1 [drawing 17 Benzthiophene 5-carboxamidine n=1]
